{"source": "patent US20120283802A1", "about": "“FAR-INFRARED RADIATION IN USE OF IMPROVING PATENCY OF ARTERIOVENOUS FISTULA, DECREASING FAILURE OF ARTERIOVENOUS FISTULA MATURATION, AND PREVENTING AND/OR AMELIORATING PERIPHERAL ARTERY DISEASES” (priority 2007, published 2012)", "key": {"[1]": {"system": "VCAM-1 expression in HUVECs", "test": "TNF-α-induced VCAM-1 expression in HUVECs, western blot", "assay_type": "cell-based, Human", "protocol": "Human umbilical vein endothelial cells (HUVEC) (Walkersville, Md.) were serially cultured on gelatin-coated dishes and propagated in M199 medium supplemented with 20% bovine calf serum, 2 mM L-glutamine, 50 μg/ml endothelial cell growth factor, 90 μg/ml heparin, and 100 U/ml of penicillin and streptomycin. The cells were treated with FIR for 10 min, 20 min, 40 min using WS™ TY101 FIR emitter (WS Far Infrared Medical Technology Co., Ltd., Taipei, Taiwan). The top emitter was set at a height of 25 cm above the surface of the cells. After FIR treatment, the cells were collected at 0 h, 2 h, 4 h, 6 h, 24 h, and 48 h, and then the expression of HO-1 was analyzed by western blot and quantified by laser densitometry. The cells were lysed in a sample buffer (125 mM Tris [pH 6.8], 12.5% glycerol, 2% SDS, 50 mM sodium fluoride, and trace bromophenol blue) and proteins were separated by SDS-PAGE. Following transfer to a nitrocellulose membrane, blots were blocked with PBS and nonfat milk (5%) and then incubated with antibodies directed against HO-1 (1:500). Membranes were then washed in PBS, incubated with horseradish peroxidase-conjugated goat anti-rabbit or anti-goat antibody and developed with commercial chemoluminescence reagents (Amersham, Arlington Heights, Ill.). […]\nThe expression of VCAM-1 was analyzed under different combinations of TNFα, FIR, HO-1 inhibitor by a western blot. […]"}, "HO-1 expression": {"system": "HO-1 expression", "test": "HO-1 expression by western blot quantified by laser densitometry", "assay_type": "cell-based, Human", "details": "relative to control cells; SnPP 20 μM per Table 2", "protocol": "Human umbilical vein endothelial cells (HUVEC) (Walkersville, Md.) were serially cultured on gelatin-coated dishes and propagated in M199 medium supplemented with 20% bovine calf serum, 2 mM L-glutamine, 50 μg/ml endothelial cell growth factor, 90 μg/ml heparin, and 100 U/ml of penicillin and streptomycin. The cells were treated with FIR for 10 min, 20 min, 40 min using WS™ TY101 FIR emitter (WS Far Infrared Medical Technology Co., Ltd., Taipei, Taiwan). The top emitter was set at a height of 25 cm above the surface of the cells. After FIR treatment, the cells were collected at 0 h, 2 h, 4 h, 6 h, 24 h, and 48 h, and then the expression of HO-1 was analyzed by western blot and quantified by laser densitometry. […]\nU937 cells were classified into 10 groups (F, T, TF, STF, HTF, NTF, S, H, N, or C) according to the combination of different treatment, and the experimental conditions of groups are listed in Table 2. […] After 1 hour of incubation, nonadherent monocytes were removed by PBS washing and the radioactivity associated with adherent cells were quantified by scintillation spectrometry after lysis with 0.2% SDS/0.2 N NaOH. Additionally, the expression of HO-1 was analyzed by western blot and quantified by laser densitometry. […]"}}, "data": [{"smiles": "C=Cc1c2[n-]c(c1C)/C=c1\\[n-]/c(c(C)c1C=C)=C\\c1[n-]c(c(CCC(=O)O)c1C)/C=c1\\[n-]c(c(C)c1CCC(=O)O)=C2.[Sn+4]", "note": "[SnPP, tin protoporphyrin]", "values": [{"measurement": "FIR-induced inhibitory effect of VCAM-1 expression", "setting": "[1]; TNF-α 100 ng/ml + 40 min FIR, SnPP 10 μM (group 3) and 20 μM (group 4), higher expression at 20 μM", "value": "reversed"}, {"measurement": "expression of VCAM-1", "setting": "[1]; single treatment with SnPP 20 μM, without pre-treatment with TNF-α (group 6)", "value": "did not induce"}, {"measurement": "HO-1 expression, of that of the control cells", "setting": "HO-1 expression", "value": "approximately 20%"}]}]}
